Legend:
[1] = system: PD1-ss+10aa/Gaussia Luciferase; assay: Dox-Induced PD1-ss-Gluc Assay; type: cell-based; details: 24 hr Dox induction; 293FRT/TO cells; read-out: 24 hr Dox Inducible PD1ssGluc 293FRT/TO: Mean IC50
In short: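 The cell line was made by transfecting Flp-In 293 T-REx cells with a PD1 signal sequence+10aa–Gaussia luciferase fusion under T-REx control and selecting with hygromycin and blasticidin. Cells were seeded, and next day compound plus doxycycline was added at 37 °C, 5% CO2.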

[2] = system: TNFα-FL/Gaussia Luciferase; assay: Dox Induced TNFα-FL-Gluc Assay; type: cell-based; details: for IC50: 24 hr Dox induction, 293FRT/TO cells, read-out: 24 hr Dox Inducible TNFaFLGluc 293FRT/TO: Mean IC50; for 24 hr Dox Inducible TNFaFLGluc 293FRT/TO: TNF/PD1: ratio of TNFaFLGluc IC50 to PD1ssGluc IC50
In short: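 Hygromycin/blasticidin-selected Flp-In 293 T-REx cells, TNFα-FL/Gaussia luciferase fusion under T-REx control; overnight plating, then compound in DMSO/media with doxycycline at 37 °C, 5% CO2; stereo-undefined structures tested as mixtures.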

[3] = system: HER3-ss+4aa/Gaussia Luciferase; assay: Dox-Induced Her3-ss-Gluc Assay; type: cell-based; details: 24 hr Dox induction; 293FRT/TO cells; read-out: 24 hr Dox Inducible Her3(ss + 4)Gluc 293FRT/TO: Mean IC50
In short: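 Doxycycline-inducible HER3 signal sequence+4aa/Gaussia luciferase construct, stably integrated in Flp-In 293 T-REx cells; compound dilutions applied with doxycycline at 37° C., 5% CO2.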

[4] = system: IL-2-FL/Gaussia Luciferase; assay: Dox Induced IL2-FL-Gluc Assay; type: cell-based; details: for IC50: 24 hr Dox induction, 293FRT/TO cells, read-out: 24 hr Dox Inducible IL2FLGluc 293FRT/TO: Mean IC50; for 24 hr Dox Inducible IL2FLGluc 293FRT/TO: IL2/PD1: ratio of IL2FLGluc IC50 to PD1ssGluc IC50
In short: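 A hygromycin- and blasticidin-resistant 293 T-REx clone carrying inducible IL-2–Gaussia luciferase (full-length IL-2, residues 1-153) serves as the cell system. After overnight plating, the cells get test compounds together with doxycycline in DMSO/media and are incubated at 37° C, 5% CO2.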

[5] = system: multiple myeloma cell line NCI-H929; assay: H929 Cell Viability Assay; type: cell-based, human; details: Homo sapiens, NCI-H929, 48 h, NCI-H929 cells, Celltiter-Glo
In short: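 A 48-hour compound treatment of cells in 10% FBS RPMI medium was followed by luciferase-based viability quantification.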

[6] = system: multiple myeloma cell line U266B1; assay: U266 Cell Viability Assay; type: cell-based, human; details: Homo sapiens, U-266, 48 h, U266B1 cells, Celltiter-Glo
In short: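 After growth in serum-supplemented RPMI 1640, cells received serially diluted compound in DMSO/media and were kept 48 hours before a CellTiter-Glo luminescence readout.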

[7] = Liver Microsome Stability Assay (rat); details: rat liver microsomes, with NADPH, 1.0 uM compound
Method: (§1) Stability of a compound was assessed in the presence of liver microsomes from various sources—mouse, rat, monkey and human liver microsomes. 1.0 uM compound, 0.4% DMSO in 0.1 M Potassium Phosphate with 1.0 mg/mL liver microsomes, were incubated at 37° C. with or without 1 mM NADPH. The samples were quenched at 0, and 30 minutes.

[8] = Liver Microsome Stability Assay (mouse); details: mouse liver microsomes, with NADPH, 1.0 uM compound
Method: as §1

[9] = Liver Microsome Stability Assay (human); details: human liver microsomes, with NADPH, 1.0 uM compound
Method: as §1

[10] = Liver Microsome Stability Assay (monkey); details: monkey liver microsomes, with NADPH, 1.0 uM compound
Method: as §1

SMILES | IC50 [1] | IC50 [2] | IC50 [3] | IC50 [4] | EC50 [5] | EC50 [6] | Liver Microsome Stability (Multiple Species): Rat - % Remaining after 30 min w/NADPH [7] | Liver Microsome Stability (Multiple Species): Mouse - % Remaining after 30 min w/NADPH [8] | Liver Microsome Stability (Multiple Species): Human - % Remaining after 30 min w/NADPH [9] | Liver Microsome Stability (Multiple Species): Monkey - % Remaining after 30 min w/NADPH [10] | 24 hr Dox Inducible TNFaFLGluc 293FRT/TO: TNF/PD1 [2] | 24 hr Dox Inducible IL2FLGluc 293FRT/TO: IL2/PD1 [4]
N#Cc1cc(C(=O)Nc2nc([C@H]3CCCN3c3ccccc3)cs2)n(Cc2ccnc(F)c2)c1 [Compound A149, (R)-4-cyano-1-((2-fluoropyridin-4-yl)methyl)-N-(4-(1-phenylpyrrolidin-2-yl)thiazol-2-yl)-1H-pyrrole-2-carboxamide] | 0.0681 µM | 1.01 µM | 0.126 µM | 0.152 µM | 2.54 µM | 4.39 µM | 17.1% | 46% | 25.9% | 9.8% | 14.9 | 2.2
NC(=O)c1cc(C(=O)Nc2nc([C@H]3CCCN3c3ccccc3)cs2)n(Cc2ccnc(F)c2)c1 [Compound A152, (R)-1-((2-fluoropyridin-4-yl)methyl)-N2-(4-(1-phenylpyrrolidin-2-yl)thiazol-2-yl)-1H-pyrrole-2,4-dicarboxamide] | 2.41 µM | > 25 µM | 2.13 µM | 3.28 µM | 13.2 µM | > 25 µM | 24.1% | 48.9% | 44.4% | 28.1% | >10.4 | 1.4
CC(=O)N1CCC(Oc2ccc(N3CCC[C@@H]3c3csc(NC(=O)c4cccn4Cc4ccnc(F)c4)n3)nc2)CC1 [Compound A154, (R)-N-(4-(1-(5-((1-acetylpiperidin-4-yl)oxy)pyridin-2-yl)pyrrolidin-2-yl)thiazol-2-yl)-1-((2-fluoropyridin-4-yl)methyl)-1H-pyrrole-2-carboxamide] | 0.0645 µM | 0.643 µM | 0.127 µM | 0.135 µM | 1.52 µM | > 25 µM | 16% | 18.3% | 1.29% | 0.22% | 9.97 | 2.1
NC(=O)N1CCC(Oc2ccc(N3CCC[C@@H]3c3csc(NC(=O)c4cccn4Cc4ccnc(F)c4)n3)nc2)CC1 [Compound A156, (R)-4-((6-(2-(2-(1-((2-fluoropyridin-4-yl)methyl)-1H-pyrrole-2-carboxamido)thiazol-4-yl)pyrrolidin-1-yl)pyridin-3-yl)oxy)piperidine-1-carboxamide] | 0.115 µM | 1.56 µM | 0.273 µM | 0.349 µM | 2.96 µM | > 25 µM | 34.1% | 38.2% | 10.3% | 1.75% | 13.5 | 3

Continued, in another order:

IC50 [1] | IC50 [2] | IC50 [3] | IC50 [4] | EC50 [5] | EC50 [6] | Liver Microsome Stability (Multiple Species): Rat - % Remaining after 30 min w/NADPH [7] | Liver Microsome Stability (Multiple Species): Mouse - % Remaining after 30 min w/NADPH [8] | Liver Microsome Stability (Multiple Species): Human - % Remaining after 30 min w/NADPH [9] | Liver Microsome Stability (Multiple Species): Monkey - % Remaining after 30 min w/NADPH [10] | SMILES | 24 hr Dox Inducible TNFaFLGluc 293FRT/TO: TNF/PD1 [2] | 24 hr Dox Inducible IL2FLGluc 293FRT/TO: IL2/PD1 [4]
0.0492 µM | 0.758 µM | 0.0821 µM | 0.13 µM | 3.27 µM | > 25 µM | 51.6% | 36.3% | 17.4% | 0.71% | NS(=O)(=O)N1CC(Oc2ccc(N3CCC[C@@H]3c3csc(NC(=O)c4cccn4Cc4ccnc(F)c4)n3)cc2)C1 [Compound A150, (R)-1-((2-fluoropyridin-4-yl)methyl)-N-(4-(1-(4-((1-sulfamoylazetidin-3-yl)oxy)phenyl)pyrrolidin-2-yl)thiazol-2-yl)-1H-pyrrole-2-carboxamide] | 15.4 | 2.6
0.0215 µM | 0.386 µM | 0.0431 µM | 0.059 µM | 1.39 µM | > 25 µM | 38.3% | 15.3% | 7.69% | 0.95% | CNS(=O)(=O)N1CC(Oc2ccc(N3CCC[C@@H]3c3csc(NC(=O)c4cccn4Cc4ccnc(F)c4)n3)cc2)C1 [Compound A151, (R)-1-((2-fluoropyridin-4-yl)methyl)-N-(4-(1-(4-((1-(N-methylsulfamoyl)azetidin-3-yl)oxy)phenyl)pyrrolidin-2-yl)thiazol-2-yl)-1H-pyrrole-2-carboxamide] | 17.9 | 2.7
0.0374 µM | 0.877 µM | 0.0648 µM | 0.0904 µM | 1.02 µM | > 25 µM | 19.8% | 1.09% | 1.88% | 2.49% | C[S+]([O-])N1CC(Oc2ccc(N3CCC[C@@H]3c3csc(NC(=O)c4cccn4Cc4ccnc(F)c4)n3)cc2)C1 (stereo partly drawn) [Compound A153, 1-((2-fluoropyridin-4-yl)methyl)-N-(4-((2R)-1-(4-((1-(methylsulfinyl)azetidin-3-yl)oxy)phenyl)pyrrolidin-2-yl)thiazol-2-yl)-1H-pyrrole-2-carboxamide] | 23.5 | 2.4
0.08 µM | 1.34 µM | 0.0866 µM | 0.189 µM | 2.86 µM | > 25 µM | 8.23% | 16.9% | 1.07% | 0.17% | CC(=O)N1CCC(Oc2ccc(N3CCC[C@@H]3c3csc(NC(=O)c4cccn4Cc4ccnc(F)c4)n3)cn2)CC1 [Compound A155, (R)-N-(4-(1-(6-((1-acetylpiperidin-4-yl)oxy)pyridin-3-yl)pyrrolidin-2-yl)thiazol-2-yl)-1-((2-fluoropyridin-4-yl)methyl)-1H-pyrrole-2-carboxamide] | 16.8 | 2.4
0.0422 µM | 0.407 µM | 0.0497 µM | 0.0522 µM | 1.47 µM | > 25 µM | 2.44% | 0.84% | 22.9% | 13.2% | O=C(Nc1nc([C@H]2CCCN2c2ccc(OC3CSC3)cc2)cs1)c1cccn1Cc1ccnc(F)c1 [Compound A157, (R)-1-((2-fluoropyridin-4-yl)methyl)-N-(4-(1-(4-(thietan-3-yloxy)phenyl)pyrrolidin-2-yl)thiazol-2-yl)-1H-pyrrole-2-carboxamide] | 9.64 | 1.2
